These results are taken from patent US4442106A, “Quinoline derivatives, pharmaceutical compositions containing such compounds, and methods of treating cardiovascular conditions with them” (ACF Chemiefarma N.V., priority 1980, dated 1984).

Where two headings read alike, the source gives them in different places.

Data set [1] has as its system spontaneously hypertensive rats. Nature of the data set: Effectiveness in spontaneously hypertensive rats: systolic blood pressure by tail cuff method. Conditions: Rattus norvegicus, read-out: Change of systolic blood-pressures. It counts as in vivo. The method, then:
Experiment 1-Effectiveness of the compounds of Examples in spontaneously hypertensive rats
Systolic blood pressures were recorded by a modification of the tail cuff method described by I.M. Claxton et al., Eur. J.Pharmacology 37, 179 (1976). An oscilloscope or W+W BP recorder, model 8002, was used to display pulses.
Prior to all measurements rats were placed in a heated environment (33.5±0.5° C.) before transfer to a restraining cage. Each determination of blood pressure was the mean of at least 6 readings.
Spontaneously hypertensive rats (aged 12-18 weeks) with systolic blood pressures >170 mm Hg were considered hypertensive.
In the following table the results with certain compounds of the invention, which have been carried out with the above-described method, are mentioned. The numbers of the compounds correspond with those of the Examples.

A short description of a further data set: LD50 in mice. Conditions: mouse, in vivo.
The test system of data set [2] is right ventricle of the heart. Put plainly: Guinea Pigs Electrostimulation Test (arrhythmias by electrostimulation of the right ventricle of the heart). The data set is classed as in vivo. Conditions: Cavia porcellus, 0.5 h, 30 minutes before stimulation, read-out: Percent increase in voltage required for arrhythmia; for change in vivo at 32 mg/kg: standard dose 32 mg/kg intraduodenal. The method, then:
Experiment 2-Effectiveness of the compounds of Examples in the Guinea Pigs Electrostimulation Test
Arrhythmias are induced in guinea pigs by electrostimulation of the right ventricle of the heart. The animals are anaesthesized with urethane (1.2 g/kg i.p.) and artificially respirated before a needle electrode is inserted in the right ventricle of the heart. Substances are given intraduodinally 30 minutes before the stimulation at a standard dose of 32 mg/kg. In some cases a different dose was used as indicated.
The voltage needed for induction of extra systoles in control animals (n=6) is compared with that required for induction of arrhythmias in treated animals (n=6).
This method is based on the work of L. Szekeres and G. J. Papp, Naunyn-Schmiedebergs Arch. Exp. Path. Pharmak., 245, 70 (1963).
In the table the results of certain compounds of the invention are mentioned, which have been carried out according to the method described above.
The numbers of the compounds correspond with those of the Examples.

For orientation: LD50 means the dose at which mortality reaches 50%. With `CCCN1CC[C@@H](CCC(=O)c2cc(C)nc3ccccc23)[C@@H](CC)C1` [Compound 26, N-propyl-2'-methyl-hydrocinchonicine], the change in vivo at 10 mg/kg in data set [1] (1 h) is 0%; in data set [1] (2 h), 3%; in data set [1] (4 h), -5%; in data set [1] (6 h) it was -7%. The LD50 in the data set “LD50 in mice” was determined as 500 mg/kg. Further, the change in vivo at 32 mg/kg in data set [2] came out at 24%.

In the case of `CCCN1CC[C@@H](CCC(O)c2cc(C)nc3ccccc23)[C@@H](CC)C1` (some centres unmarked) [Compound 38, N-propyl-2'-methyl-hydrocinchonicinol-1], the change in vivo at 10 mg/kg in data set [1] (1 h) was 1%; in data set [1] (2 h) it was 0%; in data set [1] (4 h), -3%; in data set [1] (6 h), -4%; in data set [1] (24 h), 0%. Moreover, the change in vivo at 16 mg/kg in data set [2] (at 16 mg/kg, intraduodenal) stood at 31%.

As to `CC[C@H]1CN(CCCC(=O)c2ccc(F)cc2)CC[C@H]1CCC(O)c1cc(C)nc2ccccc12` (some centres unmarked) [Compound 39, N-[3-(4-fluorobenzoyl)propyl]-2'-methyl-hydrocinchonicinol-1], the change in vivo at 1 mg/kg in data set [1] (1 h) was -16%; in data set [1] (2 h), -24%; in data set [1] (4 h) it was -26%; in data set [1] (6 h), -23%; in data set [1] (24 h) it was -1%. Moreover, the change in vivo at 32 mg/kg in data set [2] came out at 5%.

As for `CCCc1cc(C(O)CC[C@@H]2CCN(CCC)C[C@@H]2CC)c2ccccc2n1` (some centres unmarked) [Compound 41, N-propyl-2'-propyl-hydrocinchonicinol-1], the change in vivo at 10 mg/kg in data set [1] (1 h) was -6%; in data set [1] (2 h), -11%; in data set [1] (4 h), -15%; in data set [1] (6 h) it was -17%; in data set [1] (24 h), 3%. Also, the change in vivo at 8 mg/kg in data set [2] (intraduodenal) was determined as 101%.

With `CCCN1CC[C@@H](CCCc2cc(C)nc3ccccc23)[C@@H](CC)C1` [Compound 43, 2'-Methyl-N-propyl-desoxo-hydrocinchonicine.bioxalate], the change in vivo at 100 mg/kg was -1% in data set [1] (1 h), -12% in data set [1] (2 h), -28% in data set [1] (4 h) and -15% in data set [1] (24 h). Besides, in data set [2], the change in vivo at 32 mg/kg worked out at 9%.

Take `CCCOc1cc(C(=O)CC[C@@H]2CCN(C)C[C@@H]2CC)c2ccccc2n1` [Compound 51, N-methyl-2'-propoxy-hydrocinchonicine.bioxalate]: the change in vivo at 3 mg/kg was -1% in data set [1] (1 h); 0% in data set [1] (2 h); -7% in data set [1] (4 h); -13% in data set [1] (6 h); -1% in data set [1] (24 h). Further, in data set [2], the change in vivo at 32 mg/kg is -5%.

In the case of `CC[C@H]1CN(CCCC(=O)c2ccccc2)CC[C@H]1CC(O)Cc1cc(OC)nc2ccccc12` (some centres unmarked) [Compound 54, N-(3-benzoylpropyl)-2'-methoxy-hydrocinchonicinol-2], the change in vivo at 10 mg/kg was -17% in data set [1] (1 h); -1% in data set [1] (2 h); -16% in data set [1] (4 h); -16% in data set [1] (6 h); 7% in data set [1] (24 h). Also, the change in vivo at 32 mg/kg in data set [2] is 16%.

On to `CCCCCN1CC[C@@H](CC(O)Cc2cc(C(F)(F)F)nc3ccccc23)[C@@H](CC)C1` (some centres unmarked) [Compound 61], for which the change in vivo at 10 mg/kg is -8% in data set [1] (1 h); -10% in data set [1] (2 h); -13% in data set [1] (4 h); -12% in data set [1] (6 h); -7% in data set [1] (24 h). In addition, the change in vivo at 8 mg/kg in data set [2] (intraduodenal) was determined as 11%.

In the case of `CCCN1CC[C@@H](CC(=O)Cc2cc(OC)nc3ccccc23)[C@@H](CC)C1` [Compound 63, 1-(2-Methoxy-4-quinolyl)-3-[3(R)-ethyl-N-propyl-4(S)-piperidyl]-propanone-2.bioxalate], the change in vivo at 10 mg/kg in data set [1] (1 h) is -1%; in data set [1] (2 h) it was 1%; in data set [1] (4 h), -4%; in data set [1] (6 h), -3%; in data set [1] (24 h), -6%. Also, the change in vivo at 4 mg/kg in data set [2] (at 4 mg/kg, intraduodenal) came to 12%.
